ChEMBL document CHEMBL6114949, “Synthesis and physiological effects of new 4-aminophenol derivatives as paracetamol analogues” (Bioorg Med Chem Lett, 2025)
The source made the active and inactive calls. No cut-off for these calls is given here.

Tests used:
Rattus norvegicus [1] = experiment: Antinociceptive activity in zymosan-induced rat arthritis model assessed as nociceptive response inhibition at 240 mg/kg, ig administered once daily for 7 days and measured 1 hr post-zymosan challenge on day 7 by Randall-Selitto test (reference value: -34.6%); assay type: functional; conditions: po, 168 h, time 7 day
[2] = Hepatotoxicity in zymosan-induced rat arthritis model assessed as disruption of hepatocyte membrane at 240 mg/kg, ig administered once daily for 7 days by hematoxylin-eosin staining based histological analysis; assay type: toxicity, organism-based, Liver; conditions: in vivo, po, 168 h, time 7 day
Rattus norvegicus [3] = experiment: Antipyretic activity against LPS-induced polyphasic febrile response in rats assessed as change in core body temperature at 240 mg/kg, po treated 40 mins prior to LPS addition and measured after 160 mins during phase 1 (reference value: 0.85 deg C); assay type: functional, organism-based; conditions: time 200.0 min
[4] = Hepatotoxicity in zymosan-induced rat arthritis model assessed as change in shape of liver portal tracts at 240 mg/kg, ig administered once daily for 7 days by hematoxylin-eosin staining based histological analysis; assay type: toxicity, organism-based; conditions: in vivo, po, 168 h, time 7 day
[5] = Hepatotoxicity in zymosan-induced rat arthritis model assessed as effect on sinusoids elongation at 240 mg/kg, ig administered once daily for 7 days by hematoxylin-eosin staining based histological analysis; assay type: toxicity, organism-based, Liver; conditions: in vivo, po, 168 h, time 7 day
[6] = Hepatotoxicity in zymosan-induced rat arthritis model assessed as effect on general architecture of liver at 240 mg/kg, ig administered once daily for 7 days by hematoxylin-eosin staining based histological analysis; assay type: toxicity, organism-based; conditions: in vivo, po, 168 h, time 7 day
[7] = Hepatotoxicity in zymosan-induced rat arthritis model assessed as change in hepatocyte cytoplasmic appearance at 240 mg/kg, ig administered once daily for 7 days by hematoxylin-eosin staining based histological analysis; assay type: toxicity, organism-based, Liver; conditions: in vivo, po, 168 h, time 7 day
[8] = Hepatotoxicity in zymosan-induced rat arthritis model assessed as effect on beam structure of liver at 240 mg/kg, ig administered once daily for 7 days by hematoxylin-eosin staining based histological analysis; assay type: toxicity, organism-based; conditions: in vivo, po, 168 h, time 7 day
[9] = Hepatotoxicity in zymosan-induced rat arthritis model assessed as appearance of vacuoles in hepatocyte cytoplasm at 240 mg/kg, ig administered once daily for 7 days by hematoxylin-eosin staining based histological analysis; assay type: toxicity, organism-based, Liver; conditions: in vivo, po, 168 h, time 7 day
Rattus norvegicus [10] = experiment: Antinociceptive activity in zymosan-induced rat model of thermal nociceptive hypersensitivity assessed as nociceptive response inhibition at 240 mg/kg, ig administered once daily for 7 days and measured 1 hr post-zymosan challenge on day 7 by hot-plate test (reference value: -42.4%); assay type: functional; conditions: po, 168 h, time 7 day
[11] = Hepatotoxicity in zymosan-induced rat arthritis model assessed as change in shape of liver central veins at 240 mg/kg, ig administered once daily for 7 days by hematoxylin-eosin staining based histological analysis; assay type: toxicity, organism-based; conditions: in vivo, po, 168 h, time 7 day
[12] = Hepatotoxicity in zymosan-induced rat arthritis model assessed as change in hepatocyte nucleus size at 240 mg/kg, ig administered once daily for 7 days by hematoxylin-eosin staining based histological analysis; assay type: toxicity, organism-based, Liver; conditions: in vivo, po, 168 h, time 7 day
Rattus norvegicus [13] = experiment: Antipyretic activity against LPS-induced polyphasic febrile response in rats assessed as suppression of rise in core body temperature at 240 mg/kg, po treated 40 mins prior to LPS addition and measured after 160 mins relative to control; assay type: functional; conditions: time 200 min, 3.333 h
Rattus norvegicus [14] = experiment: Antipyretic activity against LPS-induced polyphasic febrile response in rats assessed as suppression of rise in core body temperature at 240 mg/kg, po treated 40 mins prior to LPS addition and measured after 200 mins; assay type: functional, organism-based; conditions: time 240.0 min
Rattus norvegicus [15] = experiment: Antipyretic activity against LPS-induced polyphasic febrile response in rats assessed as suppression of rise in core body temperature at 240 mg/kg, po treated 40 mins prior to LPS addition and measured after 10 mins; assay type: functional, organism-based; conditions: time 50.0 min
[16] = Hepatotoxicity in zymosan-induced rat arthritis model assessed as effect on sinusoids arrangement at 240 mg/kg, ig administered once daily for 7 days by hematoxylin-eosin staining based histological analysis; assay type: toxicity, organism-based, Liver; conditions: in vivo, po, 168 h, time 7 day
[17] = Hepatotoxicity in zymosan-induced rat arthritis model assessed as change in hepatocyte karyoplasm at 240 mg/kg, ig administered once daily for 7 days by hematoxylin-eosin staining based histological analysis; assay type: toxicity, organism-based, Liver; conditions: in vivo, po, 168 h, time 7 day
[18] = Hepatotoxicity in zymosan-induced rat arthritis model assessed as change in hepatocyte shape at 240 mg/kg, ig administered once daily for 7 days by hematoxylin-eosin staining based histological analysis; assay type: toxicity, organism-based, Liver; conditions: in vivo, po, 168 h, time 7 day

For CCCCCCCCCCCCCCCC(=O)Nc1ccc(OCC(=O)NCCO)cc1, the inhibition in vivo at 240 mg/kg (Rattus norvegicus [1]) was 23.1%, the Activity [2] was “Non-toxic” and the ΔTm (Rattus norvegicus [3]) was 0.28 °C. The Activity [4] was “Non-toxic”, the Activity [5] was “Non-toxic” and the Activity [6] was “Non-toxic”. For the same compound, the Activity [7] was “Non-toxic”, the Activity [8] was “Non-toxic” and the Activity [9] was “Non-toxic”. For the same compound, the inhibition in vivo at 240 mg/kg (Rattus norvegicus [10]) was 29.8%, the Activity [11] was “Non-toxic” and the Activity [12] was “Non-toxic”. For the same compound, the “fold change (FC)” value (Rattus norvegicus [13]) was 3, the Activity (Rattus norvegicus [14]) was “Active” and the Activity (Rattus norvegicus [15]) was “Active”. The Activity [16] was “Non-toxic”, the Activity [17] was “Non-toxic” and the Activity [18] was “Non-toxic”.
